Measurements reported in patent publication US10081667B2, “Composition and method for therapeutic agent delivery during pregnancy” (University of Mississippi Medical Center, priority 2013, dated 2018).
Values belong to the molecule of their own block, whether it stands above or below them. Where no end group is shown, it is not given here.

Tests used:
[1] = Pharmacokinetics and biodistribution of SynB1-ELP-p50 versus free p50 peptide in pregnant rats
[2] = tested on: human umbilical vein endothelial cells (HUVECs); test: HUVEC proliferation, MTS cell proliferation assay; type: cell-based; conditions: 72 h exposure
Procedure: FIG. 9 is a bar graph showing ELP-VEGF stimulation of HUVEC proliferation. HUVEC cell proliferation was determined after 72 h exposure to ELP, VEGF, or ELP-VEGF at the indicated concentrations using the MTS cell proliferation assay.
Proliferation of human umbilical vein endothelial cells (HUVECs) is stimulated when the cell are exposed to VEGF.

[3] = ELP-VEGF pharmacokinetics and biodistribution in mice after bolus IV; type: in vivo, C57/B16 mice
Procedure: FIG. 12 includes graphs showing ELP-VEGF pharmacokinetics and biodistribution. FIG. 12A. Fluorescently labeled free VEGF or ELP-VEGF were administered by IV injection to C57/B16 mice. Plasma levels were determined by direct fluorescence quantitation and fit to a two-compartment pharmacokinetic model. FIG. 12B. […] FIG. 12D.
In addition to examining the ELP-VEGF activity in vitro, the pharmacokinetics (PK) and biodistribution of ELP-VEGF in comparison to free VEGF121 is also determined. Both free VEGF121 and ELP-VEGF were fluorescently labeled, and their PK and biodistribution were determined in mice after bolus intravenous administration. […] This is consistent with other reports of approximately a 30 minute half-life for recombinant VEGF in humans. ELP-VEGF cleared more slowly than free VEGF121 (FIG. 12A). […] Four hours after the infusion, the biodistribution was determined by ex vivo whole organ fluorescence imaging.

initial plasma levels relative to SynB1-ELP-p50 levels ([1]; 100 mg/kg single bolus, pregnant rats): about 100 fold lower
total placental levels relative to SynB1-ELP-p50 ([1]; four hours after injection): thirty fold lower
Molecule: VQRKRQKLMP [p50 peptide]
entry into fetal circulation / pups ([1]; four hours after injection): freely entered the fetal circulation and was visible in the pups

B1: VEGF121: free recombinant vascular endothelial growth factor VEGF121, comparator (protein)
chain: MSKGPGVGVPGAGVPGGGVPGAGVPGGGVPGAGVPGGGVPGAGVPGGGVPGAGVPGGGVPGAGVPGGGVPGAGVPGGGVPGAGVPGVGVPGAGVPGGGVPGAGVPGGGVPGAGVPGGGVPGAGVPGGGVPGAGVPGGGVPGAGVPGGGVPGAGVPGGGVPGAGVPGVGVPGAGVPGGGVPGAGVPGGGVPGAGVPGGGVPGAGVPGGGVPGAGVPGGGVPGAGVPGGGVPGAGVPGGGVPGAGVPGVGVPGAGVPGGGVPGAGVPGGGVPGAGVPGGGVPGAGVPGGGVPGAGVPGGGVPGAGVPGGGVPGAGVPGGGVPGAGVPGVGVPGAGVPGGGVPGAGVPGGGVPGAGVPGGGVPGAGVPGGGVPGAGVPGGGVPGAGVPGGGVPGAGVPGGGVPGAGVPGVGVPGAGVPGGGVPGAGVPGGGVPGAGVPGGGVPGAGVPGGGVPGAGVPGGGVPGAGVPGGGVPGAGVPGGGVPGAGVPGVGVPGAGVPGGGVPGAGVPGGGVPGAGVPGGGVPGAGVPGGGVPGAGVPGGGVPGAGVPGGGVPGAGVPGGGVPGAGVPGVGVPGAGVPGGGVPGAGVPGGGVPGAGVPGGGVPGAGVPGGGVPGAGVPGGGVPGAGVPGGGVPGAGVPGGGVPGAGVPGVGVPGAGVPGGGVPGAGVPGGGVPGAGVPGGGVPGAGVPGGGVPGAGVPGGGVPGAGVPGGGVPGAGVPGGGVPGAGVPGVGVPGAGVPGGGVPGAGVPGGGVPGAGVPGGGVPGAGVPGGGVPGAGVPGGGVPGAGVPGGGVPGAGVPGGGVPGAGVPGWPGSGAPMAEGGGQNHHEVVKFMDVYQRSYCHPIETLVDIFQEYPDEIEYIFKPSCVPLMRCGGCCNDEGLECVPTEESNITMQIMRIKPHQGQHIGEMSFLQHNKCECRPKKDRARQEKCDKPRR
modifications: synthetic ELP-VEGF sequences
notes: free recombinant vascular endothelial growth factor VEGF121, comparator
stimulation of HUVEC proliferation [2]: stimulated HUVEC proliferation with equal potency
terminal plasma half-life ([3]; bolus IV, 2-compartment PK model): approximately 30 minutes
organ accumulation, ex vivo whole organ fluorescence imaging ([3]; four hours after the infusion): accumulated most highly in the kidneys and the liver
